Data set [1] concerns iC9 (inducible caspase-9) safety switch. Description: Rimiducid activation of the iC9 safety switch in CAR-T-treated tumor-bearing NSG mice. It counts as in vivo. The method, then:
Animal Models. To evaluate anti-tumor activity of CD19-targeted CAR-T cells, NSG mice were engrafted with 5×10^5 CD19^+ Raji or Raji-EGFPluc tumor cells by intravenous (i.v.) tail vein injection. After 4 days, variable doses of non-transduced and gene-modified T cells were administered by i.v. (tail) injection. In some experiments, mice were rechallenged with Raji-EGFPluc […] as above. To test CD123-specific CAR-T activity, 1×10^6 CD123^+ THP-1-EGFPluc were engrafted by i.v. injection, followed by infusion of 2.5×10^6 unmodified or CAR-T cells 7 days post-tumor engraftment. iC9 titration experiments were performed by treating Raji tumor-bearing mice with 5×10^6 iC9-CD19.ζ-MC-modified T cells followed by injection of rimiducid 7 days after T cell injection at 0.00005, 0.0005, 0.005, 0.05, 0.5 and 5 mg/kg. To evaluate cytokine-related toxicities, neutralizing antibodies against hIL-6, hIFN-γ and TNF-α or an isotype control antibody (Bio X Cell, West Lebanon, N.H.) were administered by i.p. injection with 100 ug twice weekly. Additional experiments were performed using positively selected CD4^+ and CD8+ iC9-CD19.ζ-MC-modified T cells using CD4 or CD8 microbeads and MACS columns (Miltenyi Biotec). In vivo tumor growth and T cell proliferation was measured by bioluminescence imaging (BLI) by i.p. injection of 150 mg/kg D-luciferin (Perkin Elmer, Waltham, Mass.) and imaged using the IVIS imaging system (Perkin Elmer). Photon emission was analyzed by whole body region-of-interest (ROI) and signal measured as average radiance (photons/second/cm2/steradian).
While administration of high dose rimiducid (5 mg/kg) allowed the persistence of low level CAR-T cells, titration of rimiducid may permit the retention of more gene-modified T cells while mitigating cytokine-related toxicities. T cells were co-transduced with iC9-CD19.ζ-MC and EGFPluc and administered into Raji-bearing mice. Following the onset of cachexia (>10% body weight loss), a log-titration of rimiducid (5-5×10^−5 mg/kg) was administered as a single i.p. injection (FIG. 6A).
To further study cachexia associated with administration of iC9-CAR.-MC-modified T cells, the CD19-redirected construct was assayed against CD19^+ Daudi tumors in vivo, and neutralizing antibodies targeting human IL-6, IFN-γ and TNF-α, all of which are cross-reactive with murine cytokine receptors, were administered, and followed by monitoring of mouse weight loss. Here, tumor-bearing mice were treated with 5×10^6 iC9-CD19.ζ-MC transduced T cells and following >10% weight loss, intervention with either a single i.p. dose of rimiducid (0.5 mg/kg) or vehicle, or twice weekly injections of 100 ug per mouse anti-hIFN-γ, hIL-6 or hTNF-α was initiated (FIG. 9A). […] 5×10^6 iC9-CD19.ζ-MC-modified T cells were injected in to Daudi-bearing NSG mice and then treated with 0.5 mg/kg rimiducid after >10% weight loss or with i.p. injections with […] twice per week with an isotype antibody (control) or with neutralizing antibodies against human TNF-α, IL-6 and IFN-γ. Weight recovery was monitored until day 28. […] Thus, cytokine blockade provides a second effective mechanism to resolve the toxicity of this potent approach.

For data set [2] the following is noted: Iuliucci J D, et al., J Clin Pharmacol. 2001; cited from earlier work.
[3] abbreviates: Raji model, 24 hours post-rimiducid.

Entries after “also recorded” stand apart in the source; their conditions may differ.

Regarding `CC[C@H](C(=O)N1CCCC[C@H]1C(=O)O[C@H](CCc1ccc(OC)c(OC)c1)c1cccc(OCC(=O)NCCNC(=O)COc2cccc([C@@H](CCc3ccc(OC)c(OC)c3)OC(=O)[C@@H]3CCCCN3C(=O)[C@@H](CC)c3cc(OC)c(OC)c(OC)c3)c2)c1)c1cc(OC)c(OC)c(OC)c1` (relative stereo) [rimiducid, 2-Piperidinecarboxylic acid, 1-[(2S)-1-oxo-2-(3,4,5-trimethoxyphenyl)butyl]-, 1,2-ethanediylbis[imino(2-oxo-2,1-ethanediyl)oxy-3,1-phenylene[(1R)-3-(3,4-dimethoxyphenyl)propylidene]] ester, [2S-[1(R*),2R*[S*[S*[1(R*),2R*]]]]]-(9CI)], the “serum concentrations of hTNF-α” value in data set [1] (Daudi model, 0.5 mg/kg single i.p.) is on record as “significantly reduced”. Besides, the “CAR-T BLI after rimiducid titration” value in data set [1] (Raji model, 5-5×10^−5 mg/kg single i.p.) was “reduced in a rimiducid dose-dependent manner”. In data set [1] (setting [3]), the “serum cytokine levels (IL-6, IFN-γ, TNF-α) after rimiducid titration” value is “decreased serum cytokine levels” and the “serum levels of human cytokines (IFN-γ, IL-6) after rimiducid” value is reported as “reverted to baseline levels”. Further, the “resolution of CAR-related toxicity (weight loss)” value in data set [1] (Raji model, iC9-CD19.ζ-MC T cells, single 5 mg/kg i.p., 5 mg/kg) is “promptly resolved toxicity; also recorded: successfully resolved”. The resolution of cachexia entry in data set [1] (THP-1 model, iC9-CD123.ζ-MC T cells, without affecting tumor control) is given as “could be resolved”. Further, the “safety in healthy volunteers” value in data set [2] is “proven safe”.

Values taken from patent publication US20200347148A1, “METHODS FOR ENHANCING AND MAINTAINING CAR-T CELL EFFICACY” (Bellicum Pharmaceuticals, Inc., priority 2017, published 2020).
